Laboratory results from ChEMBL document CHEMBL3588855, “Different structures of the two peroxisome proliferator-activated receptor gamma (PPARγ) ligand-binding domains in homodimeric complex with partial agonist, but not full agonist” (Bioorg Med Chem Lett, 2015).

How the values were obtained:
[1] = molecular target: T1, Peroxisome proliferator-activated receptor gamma (Homo sapiens) (UniProt P37231); experiment: Agonist activity at human GAL4-tagged-PPARgamma transfected in monkey COS1 cells by transient transfection/luciferase reporter gene assay relative to 30 uM pioglitazone; type: cell-based; details: COS-1
T1 sequence (whole entry): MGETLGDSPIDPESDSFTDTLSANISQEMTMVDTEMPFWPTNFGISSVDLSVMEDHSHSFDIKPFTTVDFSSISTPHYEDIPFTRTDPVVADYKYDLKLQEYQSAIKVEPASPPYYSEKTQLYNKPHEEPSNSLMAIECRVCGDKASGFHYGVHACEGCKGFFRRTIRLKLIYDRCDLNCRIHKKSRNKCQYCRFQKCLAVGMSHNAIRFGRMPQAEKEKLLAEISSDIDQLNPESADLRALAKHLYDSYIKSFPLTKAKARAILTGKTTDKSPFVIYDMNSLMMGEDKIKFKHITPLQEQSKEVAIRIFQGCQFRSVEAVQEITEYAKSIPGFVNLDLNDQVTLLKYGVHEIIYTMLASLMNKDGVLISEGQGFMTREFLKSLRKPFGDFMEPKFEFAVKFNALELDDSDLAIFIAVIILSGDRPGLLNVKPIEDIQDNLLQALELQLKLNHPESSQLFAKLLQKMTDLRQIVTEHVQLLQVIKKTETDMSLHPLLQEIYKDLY

[2] = molecular target: T1, Peroxisome proliferator-activated receptor gamma (Homo sapiens); experiment: Agonist activity at human GAL4-tagged-PPARgamma transfected in monkey COS1 cells by transient transfection/luciferase reporter gene assay relative to 10 uM rosiglitazone; type: cell-based; details: COS-1

Work on `CCCOc1ccc(C(=O)NS(=O)(=O)c2ccccc2)cc1CNC(=O)c1ccc(-c2ncccn2)cc1` yielded a %max [1] of 50% and a %max [2] of 50%.
